Results: PubChem BioAssay (NCI)
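How tested: cells in 96-well plates exposed to compound for 48 hours at five concentrations. GI50 = concentration required for 50% inhibition of growth. At the TGI there is no net growth.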

What was measured:
Assay in all cases: inhibition of tumour cell growth, NCI panel, 48 h
A549 NSCLC = system: A549 NSCLC
HT29 colon = system: HT29 colon
NCI-H23 lung = system: NCI-H23 lung
NCI-H522 lung = system: NCI-H522 lung
SF-539 CNS = system: SF-539 CNS
SK-OV-3 ovarian = system: SK-OV-3 ovarian
SW-620 colon = system: SW-620 colon
UACC-62 melanoma = system: UACC-62 melanoma
DU-145 prostate = system: DU-145 prostate
MCF7 breast = system: MCF7 breast

Row | Compound | GI50 (A549 NSCLC) | TGI (A549 NSCLC) | GI50 (HT29 colon) | TGI (HT29 colon) | GI50 (NCI-H23 lung) | TGI (NCI-H23 lung) | GI50 (NCI-H522 lung) | TGI (NCI-H522 lung) | GI50 (SF-539 CNS) | TGI (SF-539 CNS) | GI50 (SK-OV-3 ovarian) | TGI (SK-OV-3 ovarian) | GI50 (SW-620 colon) | TGI (SW-620 colon) | GI50 (UACC-62 melanoma) | TGI (UACC-62 melanoma) | GI50 (DU-145 prostate) | TGI (DU-145 prostate) | GI50 (MCF7 breast) | TGI (MCF7 breast)
1 | CC[C@@]1(O)C(=O)OCc2c1cc1n(c2=O)Cc2cc3c(N)c(OC)ccc3nc2-1 | 0.0445 µM | 1.91 µM | 0.205 µM | > 100 µM | 0.0213 µM | 0.142 µM | 0.0434 µM | 1.31 µM | 0.0139 µM | 0.0932 µM | 0.0582 µM | 2.29 µM | 0.137 µM | 2.87 µM | < 0.01 µM | 0.0285 µM | – | – | – | –
2 | O=C(Nc1cccc2[nH]c(C(F)(F)F)nc12)c1ccc(Br)cc1F | 3.27 µM | 13.3 µM | – | – | 3.12 µM | 10.6 µM | 2.55 µM | 8.26 µM | 3.26 µM | 11.6 µM | 2.64 µM | 9.27 µM | 3.38 µM | 13.2 µM | 3.26 µM | 13.5 µM | 4.87 µM | 20.5 µM | 2.5 µM | 15 µM
3 | Cc1ccccc1-c1cc(=O)c2cc(C)c(C)c(C(=O)O)c2o1 | – | > 100 µM | – | > 100 µM | – | > 100 µM | – | > 100 µM | – | > 100 µM | – | > 100 µM | – | > 100 µM | – | > 100 µM | – | – | – | –
4 | O=C(NCCc1nccs1)c1cnc2c(S)cccc2c1 | 3.18 µM | 13.3 µM | 4.34 µM | 37 µM | 3.91 µM | > 100 µM | – | – | 4.17 µM | 42.7 µM | 3.56 µM | 15 µM | 3.62 µM | 28.7 µM | 2.68 µM | 24.1 µM | 3.27 µM | 13.7 µM | 1.02 µM | 37.5 µM
5 | COc1ccc(C2=NC(CO)[C@H](c3ccccc3)O2)cc1OC (some centres undefined) | – | > 100 µM | – | > 100 µM | – | – | – | > 100 µM | – | > 100 µM | – | > 100 µM | – | > 100 µM | – | > 100 µM | – | – | – | –
6 | CC(C)(C)c1ccc(OCCCCCCCN2CCNCC2)cc1 | 1.72 µM | 3.6 µM | – | – | 4.28 µM | 17.6 µM | – | – | – | – | 1.82 µM | 3.92 µM | 1.67 µM | 3.26 µM | 1.88 µM | 3.6 µM | 1.78 µM | 3.37 µM | 1.62 µM | 3.26 µM
7 | NC(=O)c1c(-c2ccccc2)c(-c2ccccc2)cc2c(=O)c3ccccc3[nH]c12 | – | 50.6 µM | – | 42.9 µM | – | 43.5 µM | – | 20 µM | – | 37.4 µM | – | 54.2 µM | – | > 100 µM | – | 96.8 µM | – | – | – | –
8 | O=C1C=C(c2ccccc2)NC1(c1ccccc1)c1cc(-c2ccccc2)[nH]c1-c1ccccc1 (centres undefined) | – | > 100 µM | – | > 100 µM | – | > 100 µM | – | – | – | > 100 µM | – | > 100 µM | – | > 100 µM | – | > 100 µM | – | – | – | –
9 | CCOC(=O)N1C/C(=C\c2ccc(N(C)C)cc2)C(=O)/C(=C/c2ccc(N(C)C)cc2)C1 | – | > 100 µM | – | > 100 µM | – | > 100 µM | – | > 100 µM | – | > 100 µM | – | > 100 µM | – | > 100 µM | – | > 100 µM | – | – | – | –
